Data set [1] can be described thus: Concentration of compound affecting viability of the uninfected cells by 50% when assayed in parallel with antiviral assay in MT-4 cells. Format: cell-based, MT4. The settings on record: human, uninfected MT-4 cells; read-out: TC50 (the source's name).
For data set [2], the system named is MT4. Briefly: Compound was evaluated for its ability to Inhibit HIV replication in MT-4 cells. Format: functional, cell-based, Homo sapiens.
In data set [3] the test system is MT4. As to the kind of experiment: The compound was evaluated for its ability to Inhibit HIV replication in MT-4 cells. Format: functional, cell-based. The following applies: Homo sapiens.

pIC50: −log10 of the molar value. Where “and” joins values, the source holds several entries; their conditions need not be identical. Equal values may be shown once. A value given as a limit tells only on which side of the number the result lay.

One may read the pIC50 as −log10 of the IC50, conventionally taken in molar units. Take `Nc1ncnc2c1ncn2[C@H]1C=C[C@@H](OCP(=O)(O)O)O1`: in data set [1], the CC50 is more than 100 µM. In the data set on MT4 [2] (Homo sapiens, MT4), this molecule had a pIC50 of 5.37.

As to `Nc1nc(N)c2ncn([C@H]3C=C[C@@H](OCP(=O)(O)O)O3)c2n1`, the CC50 in data set [1] was more than 100 µM. Moreover, the pIC50 with MT4 [2] (Homo sapiens, MT4) is 4.08.

On to `Nc1ncnc2c1ncn2CCOCP(=O)(O)O` [ADEFOVIR], for which the CC50 in data set [1] turned out to be 40 µM. Moreover, in the data set with MT4 [2] (mt4), the pIC50 was 5.19 and 5.70.

Molecule `Nc1nc(N)c2ncn(CCOCP(=O)(O)O)c2n1` [PMEDAP] showed a pIC50 in the data set on MT4 [3] of 6.00.
